{"source": "paper PMC6767236", "about": "“Selective Cannabinoid 2 Receptor Agonists as Potential Therapeutic Drugs for the Treatment of Endotoxin-Induced Uveitis” (Molecules, 2019)", "key": {"[1]": {"design": "method as in earlier work", "conditions": "* previously published, cited from earlier work"}, "mouse CB2R": {"target": "mouse CB2R (Mus musculus, UniProt P47936)", "sequence (P47936 whole entry, the tested form may be a part)": "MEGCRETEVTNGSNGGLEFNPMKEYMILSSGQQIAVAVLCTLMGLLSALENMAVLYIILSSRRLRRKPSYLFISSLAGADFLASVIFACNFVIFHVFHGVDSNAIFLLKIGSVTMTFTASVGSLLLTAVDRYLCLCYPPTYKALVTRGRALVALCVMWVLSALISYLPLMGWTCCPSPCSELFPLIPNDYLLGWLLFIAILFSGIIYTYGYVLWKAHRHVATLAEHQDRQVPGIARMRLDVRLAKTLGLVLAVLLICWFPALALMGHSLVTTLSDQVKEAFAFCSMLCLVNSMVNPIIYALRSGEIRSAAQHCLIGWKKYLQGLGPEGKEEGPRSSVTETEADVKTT", "design": "bgal (beta-galactosidase fragment of the PathHunter system, named only in the cell line's name); host or cells: CHO-K1 (CHOK1mCB2_bgal)", "conditions": "[3H]-CP55940 displacement; * previously published; cited from earlier work"}, "[2]": {"design": "method as in earlier work", "conditions": "* previously published; cited from earlier work"}, "in vivo": {"test": "in vivo", "conditions": "for AUCINF D: mouse, i.v., HU308 2 mg/kg, RO6871304 0.5 mg/kg", "experimental": "Mouse Pharmacokinetic Profiles\nMale C57Bl/6 mice (Charles River, Fra nce) were used to study the pharmacokinetics of CB 2R ligands after i.v. and p.o. administration. Animals were up to 12 weeks of age. All animal studies in this section were performed at Hoffmann-La Roche and approved by the Federal Food Safety and Veterinary Office of the Swiss Confederation. Test compounds were formulated according to respective protocols either by dissolution (i.v.) or as aqueous suspensions in a glass potter until homogeneity was achieved (p.o.; formulated as a solution in ethanol/cremophor EL/ 0.9% NaCl (5%/5%/90%)). Formulations were injected i.v. using a 30G needle in the lateral tail vein of mice using a volume of 50 μL in the dose indicated. For p.o. applications, animals were gavaged using a volume of 100 μL in the dose indicated. At the following time points blood was drawn into EDTA: 0.08, 0.25, 0.5, 1, 2, 4, 7 h (for p.o. the first time point was omitted). Six animals were used for each compound.\nAnimals were distributed randomly over the time course and at each time point, a volume of 100 μL of blood was taken. Quantitative plasma measurement of the compound was performed by LC-MS/MS analysis. Pharmacokinetic analysis was performed using Phoenix WinNonlin 6.4 software using a non-compartmental approach consistent with the route of administration. For assessment of the exposure, Cmax, Tmax, and area under the curve (AUC) were determined from the serum concentration profiles. Parameters (clearance, […], T1/2) were estimated using nominal sampling times relative to the start of each administration. Co (initial concentration) was extrapolated from the first concentration measured following i.v. administration. […]"}, "[3]": {"test": "Octanol/water distribution coefficient (logD)"}, "human CB1R": {"target": "T1, human CB1R (Homo sapiens, UniProt P21554)", "T1 construct": "host or cells: CHO", "T1 sequence (P21554 whole entry)": "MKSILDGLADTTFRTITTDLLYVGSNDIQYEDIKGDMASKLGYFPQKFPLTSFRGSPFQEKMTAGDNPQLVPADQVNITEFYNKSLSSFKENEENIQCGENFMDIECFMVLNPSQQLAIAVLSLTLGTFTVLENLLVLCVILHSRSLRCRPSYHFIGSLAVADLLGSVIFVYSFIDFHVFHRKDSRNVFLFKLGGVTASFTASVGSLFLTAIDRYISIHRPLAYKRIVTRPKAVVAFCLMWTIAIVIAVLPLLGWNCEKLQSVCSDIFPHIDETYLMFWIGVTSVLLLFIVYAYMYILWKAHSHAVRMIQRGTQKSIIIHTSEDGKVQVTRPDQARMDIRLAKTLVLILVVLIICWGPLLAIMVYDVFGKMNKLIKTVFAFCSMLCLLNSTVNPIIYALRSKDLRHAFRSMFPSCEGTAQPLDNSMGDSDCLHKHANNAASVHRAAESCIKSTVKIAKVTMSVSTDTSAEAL", "test": "PathHunter β-arrestin recruitment assay, hCB1R", "assay_type": "cell-based", "conditions": "read-out: hCB1R: beta arrestin EC50", "experimental": "Assays were carried out using the PathHunter hCB1_bgal, hCB2_bgal, or mCB2_bgal CHOK1 β-arrestin recruitment assay kit (DiscoveRx, Fremont, CA, USA) as previously described. A total of 5000 cells per well were seeded in 384-well plates (Perkin Elmer, MA, USA) containing 20 μL cell culture medium and incubated for 16–18 h at 37 °C and 5% CO2. Cells were stimulated with 10 μM of each agonist or 11 increasing concentrations and incubated for 90 min at 37 °C and 5% CO2. […] The cells were incubated for 90 min at 37 °C and 5% CO2. Compounds in DMSO stock solutions were added using a HP D300 Digital Dispenser (Tecan, Mannedorf, Switzerland). The final concentration of organic solvent per assay point was ≤ 0.1%. The PathHunter Detection mixture was used, according to the manufacturer’s protocol, to determine the β-galactosidase enzyme activity. Detection mixture, 12 μL per well, was added and the plate was incubated for 1 h in the dark at room temperature. Chemiluminescence, indicated as relative light unit, was measured on an EnVision multilabel plate reader (Perkin Elmer, MA, USA)."}, "[4]": {"conditions": "male, C57Bl/6, mouse, in vivo, iv"}, "[5]": {"conditions": "male, C57Bl/6, mouse, in vivo, iv, 2 mg/kg"}}}
{"smiles": "CNC(=O)[C@@H](NC(=O)c1cc(OCC2(C)COC2)c(C2CC2)cn1)C(C)(C)C", "note": "[RO6851228, 5-Cyclopropyl-N-[(2S)-3,3-dimethyl-1-(methylamino)-1-oxobutan-2-yl]-4-[(3-methyloxetan-3-yl)methoxy]pyridine-2-carboxamide]", "values": [{"measurement": "pKa (basic)", "setting": "[1]", "value": 3.3}, {"measurement": "Ki", "setting": "mouse CB2R", "value": 1, "unit": "nM"}]}
{"smiles": "Cc1nc([C@](C)(CC2CC2)NC(=O)c2cc(OCC(F)(F)F)c(C3CC3)cn2)no1", "note": "[RO6871085, 5-Cyclopropyl-N-[(2S)-1-cyclopropyl-2-(5-methyl-1,2,4-oxadiazol-3-yl)propan-2-yl]-4-(2,2,2-trifluoroethoxy)pyridine-2-carboxamide]", "values": [{"measurement": "pKa (acidic, calculated)", "setting": "[1]; calculated", "value": 10.1}, {"measurement": "pKa (basic, calculated)", "setting": "[1]; calculated", "value": 2.6}, {"measurement": "Plasma Protein Binding: FREE Fraction mouse", "setting": "[2]", "value": 0.9, "unit": "%"}, {"measurement": "Ki", "setting": "mouse CB2R", "value": 6, "unit": "nM"}]}
{"smiles": "CCCCCCC(C)(C)c1cc(OC)c([C@H]2C=C(CO)[C@H]3C[C@@H]2C3(C)C)c(OC)c1", "note": "[HU308, {(1S,4S,5S)-4-[2,6-Dimethoxy-4-(2-methyloctan-2-yl)phenyl]-6,6-dimethylbicyclo[3.1.1]hept-2-en-2-yl}methanol, reference compound]", "values": [{"measurement": "half-life", "setting": "in vivo; [4]", "value": 2.15, "unit": "h"}, {"measurement": "Vd", "setting": "in vivo; [5]", "value": 2.9, "unit": "L/kg"}, {"measurement": "clearance", "setting": "in vivo; [5]", "value": 36.6, "unit": "mL/min/kg"}, {"measurement": "AUCINF D", "setting": "in vivo", "value": 456, "unit": "ng·kg·h/mL/mg"}, {"measurement": "logD", "setting": "[3]; octanol/water, pH 7.4", "value": 4.29}]}
{"smiles": "CC(C)(C)c1nc(N2CC[C@H](O)C2)c2nnn(Cc3nnnn3C3CC3)c2n1", "note": "[RO6871304, (3S)-1-{5-tert-butyl-3-[(1-cyclopropyl-1H-tetrazol-5-yl)methyl]-3H-[1,2, 3]triazolo[4,5-d]pyrimidin-7-yl}pyrrolidin-3-ol]", "values": [{"measurement": "EC50", "setting": "human CB1R", "value": "> 30000", "unit": "nM"}, {"measurement": "half-life", "setting": "in vivo; [4]", "value": 0.32, "unit": "h"}, {"measurement": "AUCINF D", "setting": "in vivo", "value": 456, "unit": "ng·kg·h/mL/mg"}]}
{"smiles": "CCCCCCC(C)(C)c1cc(OC)c(C2=C[C@H]3CC[C@]2(CO)C3(C)C)c(OC)c1", "note": "[HU910, {(1S,4R)-2-[2,6-dimethoxy-4-(2-methyloctan-2-yl)phenyl]-7,7-dimethylbicyclo[2.2.1]hept-2-en-1-yl}methanol, reference compound]", "values": [{"measurement": "LogD (at pH 7.4)", "setting": "[3]", "value": "out of range"}, {"measurement": "Plasma Protein Binding: FREE Fraction mouse", "setting": "[2]", "value": 4.1, "unit": "%"}]}
